# In PubChem BioAssay (NCI):
#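 Test compounds were applied to cells in 96-well plates for 48 hours at 5 doses. Here, GI50 denotes the concentration required for 50% inhibition of growth. TGI denotes the concentration required for complete inhibition of growth.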
# Columns and labels:
# Assay in all cases: growth of human tumour cells (NCI), 48 h
# [1] = tested on: HCT-15 colon
# [2] = tested on: MOLT-4 leukemia
# [3] = tested on: 786-0 renal
# [4] = tested on: U251 CNS
# [5] = tested on: EKVX NSCLC
# [6] = tested on: CCRF-CEM leukemia
# [7] = tested on: SK-MEL-5 melanoma
# [8] = tested on: NCI-H23 lung
# [9] = tested on: MDA-MB-231 breast
# [10] = tested on: HCC-2998 colon
SMILES,TGI [1] [µM],TGI [2] [µM],TGI [3] [µM],TGI [4] [µM],TGI [5] [µM],TGI [6] [µM],TGI [7] [µM],TGI [8] [µM],TGI [9] [µM],TGI [10] [µM],GI50 [1] [µM],GI50 [2] [µM],GI50 [8] [µM],GI50 [9] [µM],GI50 [4] [µM],GI50 [5] [µM],GI50 [7] [µM]
NCc1cccc(O)c1O,> 100,> 100,> 100,> 100,> 100,> 100,> 100,–,–,–,–,–,–,–,–,–,–
CN(Cc1cnc2nc(N)nc(N)c2n1)c1ccc(C(=O)NC(CO)CCCO)cc1 (stereo not drawn),> 100,> 100,> 100,> 100,> 100,> 100,> 100,> 100,> 100,–,–,–,–,–,–,–,–
O=c1c(-c2ccccc2)c(SCCO)n(-c2ccccc2)c(=S)n1-c1ccccc1,> 100,> 100,> 100,> 100,> 100,> 100,> 100,> 100,–,–,–,–,–,–,–,–,–
O=C1CC(=O)n2cnc3cccc(c32)N1,> 100,–,> 100,> 100,> 100,> 100,> 100,> 100,> 100,–,–,–,–,–,–,–,–
Cc1ccc(S(=O)CC(CF)OCn2cc(C)c(=O)[nH]c2=O)cc1 (stereo not drawn),> 100,> 100,> 100,> 100,–,–,> 100,> 100,> 100,> 100,–,–,–,–,–,–,–
COc1cc(C2C(Cl)C(=O)N2c2c(C)n(C)n(-c3ccccc3)c2=O)ccc1O (stereo not drawn),–,67,31.6,38,70.2,79.7,53.7,34.2,49.1,–,–,–,–,–,–,–,–
CC1=NN(C(=O)c2ccc(Cl)cc2)C(=O)/C1=C/c1ccccc1O,> 100,> 100,> 100,> 100,> 100,> 100,> 100,> 100,–,> 100,–,–,–,–,–,–,–
COC[C@@H](N=Cc1ccc([N+](=O)[O-])cc1)C(C)C,> 100,> 100,> 100,> 100,> 100,> 100,–,> 100,> 100,–,–,–,–,–,–,–,–
N#Cc1cc2c(n(C3OC(CO)C(O)C(O)C3O)c1=S)CCCCCC2 (stereo not drawn),> 100,> 100,> 100,> 100,–,> 100,> 100,> 100,> 100,> 100,–,–,–,–,–,–,–
O=C(CCN1CCN2c3ccccc3CCC2C1)c1ccc(F)cc1 (stereo not drawn),55.1,> 100,43.6,> 100,58.5,> 100,49.9,> 100,> 100,–,–,–,–,–,–,–,–
COc1ccc(/C(Cl)=C/c2cc(OC)ccc2OC)cc1,> 100,> 100,> 100,> 100,> 100,> 100,> 100,> 100,–,> 100,–,–,–,–,–,–,–
O=C(O)c1ccccc1N=Cc1ccc(N(CCCl)CCCl)cc1,> 100,> 100,–,> 100,> 100,> 100,> 100,> 100,–,> 100,–,–,–,–,–,–,–
Cc1nnc2n1N=C(c1ccc(Cl)cc1Cl)/C(=C/c1ccc(-c3ccc([N+](=O)[O-])cc3Cl)o1)S2,42.9,33.6,–,30.2,> 100,–,32.6,28.1,30.6,–,16.9,13.1,12.5,12.2,14.9,61.2,16.5
COc1cc(C2c3cc4c(cc3C3OC[C@@H]2C3CO)OCO4)cc(OC)c1OC (stereo partly drawn),71.5,> 100,> 100,> 100,> 100,> 100,27.9,–,> 100,–,–,–,–,–,–,–,–
CN=C(/N=c1\ssc(=NC)n1C)N(C)C,–,> 100,> 100,> 100,> 100,–,> 100,> 100,–,> 100,–,–,–,–,–,–,–
O=C1C=CC(=O)c2c(O)c(NCCOCCO)c(Cl)c(O)c21,3.64,27.4,17.2,30.7,–,–,4.47,3.51,–,–,–,–,–,–,–,–,–
CC(C)(C)[Si](C)(C)OCc1cccc(OCCOc2cccc(CO[Si](C)(C)C(C)(C)C)c2[N+](=O)[O-])c1[N+](=O)[O-],> 100,> 100,> 100,> 100,> 100,> 100,> 100,> 100,–,–,–,–,–,–,–,–,–
Cc1ccccc1-c1nc2c(C(=O)NCCN(C)C)cccc2[nH]1,> 100,75.6,–,> 100,> 100,> 100,53.7,> 100,–,> 100,–,–,–,–,–,–,–
COc1cccc(N[C@@H]2c3cc4c(cc3C(c3cc(OC)c(O)c(OC)c3)[C@H]3C(=O)OCC32)OCO4)c1 (stereo partly drawn),2.39,0.164,–,13,14.9,2.69,3.04,9.96,–,3.79,–,–,–,–,–,–,–
NCC(O)CSCc1ccc(Cl)cc1 (stereo not drawn),> 100,> 100,> 100,> 100,–,> 100,> 100,> 100,> 100,> 100,–,–,–,–,–,–,–
